Experimental data taken from patent US10071035B2, “Use of benzyl alcohol as a defoaming agent” (Colgate-Palmolive Company, priority 2014, dated 2018).

Assays:
[1] = Defoaming of foam generated from aqueous 0.2% sodium lauryl sulfate solution in measuring cylinders; assay type: physicochemical; conditions: three minutes after addition of 1 mL aliquot of defoaming agent to 0.2% SLS foam
Protocol: Three aqueous solutions of 0.2% sodium lauryl sulfate were prepared in 250 mL measuring cylinders by diluting 5 g of a 2% sodium lauryl sulfate stock solution with water to give a total volume of 50 mL. The solutions were agitated by swirling the measuring cylinders 12 times to generate foam. The volumes of foam generated were recorded. A 1 mL aliquot of defoaming agent was then added to each of the solutions at a rate of 0.01 mL/s. The defoaming agents investigated were benzyl alcohol, methanol, and water. Three minutes after the addition of the defoaming agent, the volumes of foam present in each vessel were recorded.

[2] = Time taken to defoam (batch to settle) under vacuum during manufacture of oral care composition; conditions: composition B (0.3% benzyl alcohol) versus comparative composition A, 4 kg batch
Protocol: The compositions were manufactured as follows: • 1. The sorbitol was added to an SS vessel having a stirrer. The stirrer was started. The sorbitol was heated to 60-62° C. • 2. Half of the purified water was added to the SS vessel. • 3. The copolymer of methyl vinyl ether and maleic acid was added to the SS vessel and mixed. Mixing was continued until the copolymer of methyl vinyl ether and maleic acid was fully dispersed. • 4. The NaOH (50% solution) was added to the SS vessel and mixed for 5 minutes. • 5. The remaining purified water was added to the SS vessel. • 6. […] The pre-mix was added to the SS vessel. • 7. The resulting gel was mixed for 20 minutes at a temperature of 64-67° C. • 8. The gel was transferred to a mixer. The thickener silica was added to the mixer and mixed for 5 minutes. The mixer used in the present experiment was an Alpro mixer. • 9. The abrasive silica and titanium dioxide were added to the mixer and mixed under vacuum. Mixing was continued until the temperature reached 46° C. • 10. At 46° C., the flavor, triclosan and sodium lauryl sulfate granules were added to the mixture. If used, benzyl alcohol was also added at this stage. • 11. The resulting mixture was then stirred for 2 minutes. Vacuum was then applied. The time taken for the batch to settle was observed. • 12. After allowing the batch to settle, mixing was continued for a further 8 minutes. […]

| SMILES | % reduction in foam after addition of defoaming agent [1] [%] | reduction of the defoaming time [2] [%] | reduction of the defoaming time ([2]; listed as benzyl alcohol) |
| --- | --- | --- | --- |
| CO [Methanol, methanol, reference compound] | 74.5 | – | – |
| OCc1ccccc1 [Benzyl alcohol, benzyl alcohol] | 59.1 | 50 | about 50% |
